Data from patent publication US10512627B2, “Anti-tumor compound and the medical use thereof” (Tianjin Medical University Cancer Institute and Hospital, priority 2014, dated 2019).

Assays:
B16 melanoma cells = test: Artificial metastasis model of B16 mice melanoma (Example 6); type: in vivo, C57BL/6 mouse
Experimental: 3) An metastasis model of B16 mouse melanoma is constructed by direct injection of B16 cells into tail vein in C57BL/6 mouse, and the ability of a drug for inhibiting tumor metastasis is determined by counting the number of the metastatic tumors on lung. Such a model mimics the metastatic process of cancer cells from the circulatory system to the target organ, which is more similar with the metastatic way of tumor cells in the bodies of patients with advanced cancer.
The ability of (S)2-(4′-methyl-3′-nitrobenzoylamino)-3-phenylpropionic acid for inhibiting tumor metastasis in vivo was tested by artificial metastasis model of B16 mice melanoma.
1) Mice grouping: C57BL/6 of SPF grade, 5 weeks old, 18˜22 g, 8 mice for each group, half male and half female;
2) The mother liquid of (S)2-(4′-methyl-3′-nitrobenzoylamino)-3-phenylpropionic acid for the dosage form administrated by intravenous injection was diluted to 0.8 mg/mL, 0.2 mg/mL, 0.05 mg/mL by adding sterilized water. […]
3) B16 cells in logarithmic growth phase were digested with 0.05% typsine for 1 min, and after centrifugation at 1000 rpm for 5 min, the supernatant was discarded and the cells were resuspended and counted. […]
5) After the completion of the experiment, the mice were sacrificed and the lungs were taken, the number and size of melanomas on the lungs was counted, and the weight of the lungs were weighed;

MDA-MB-231 cells = test: MTT assay, synergistic effect with Paclitaxel (Example 12); type: cell-based, human; details: 20 μM, 24 or 48 h
Experimental: Synergistic effects of (S)2-(4′-methyl-3′-nitrobenzoylamino)-3-phenylpropionic acid and Paclitaxel was tested by MTT assay.
1) The MDA-MB-231 cells in logarithmic growth phase were seeded in the 96-well plate at a density of 4×10^3/0.2 ml. After culturing for 12 h, 10 μl Paclitaxel solution was added, with the final concentration of 0, 0.001, 0.01, 0.1, 1, 10, 50, 100, 200 μM, then 10 μL (S)2-(4′-methyl-3′-nitrobenzoylamino)-3-phenylpropionic acid PBS solution was add to half of the wells for each group with the final concentration of 20 μM, followed by continuous culturing for 24 or 48 h.
2) 5 mg/mL MTT solution was prepared with sterilized PBS, filtered with 0.22 μm film, and diluted with medium to 1 mg/mL. After discarding the medium in the 96-well plate, 100 μL 1 mg/mL MTT working solution was added, followed by continuous culturing for 5 h.
3) MTT working solution was discarded, and 150 μL DMSO was added per well (note: to away from light). The plate was shaken on a horizontal shaker at 170 rpm for 10 min, and then the absorbance at 490 nm was detected by microplate reader.

Lewis lung cancer cells = test: Lewis lung cancer metastasis model in mice (Example 8); type: in vivo, C57BL/6 mouse; details: 50, 25, 5 mg/kg intragastric, twice a day, 21 days; P<0.01
Experimental: 5) A lung cancer model of mouse is established by subcutaneous inoculation of Lewis lung cancer cells in C57BL/6 mouse, because of the characteristic of Lewis lung cancer cell of specific metastasis toward the lung, and the ability of a drug for inhibiting the metastasis of the tumor cells may be determined by counting the number of the metastatic tumors on lung.
The ability of (S)2-(4′-methyl-3′-nitrobenzoylamino)-3-phenylpropionic acid for inhibiting tumor metastasis in vivo was tested by Lewis lung cancer metastasis model in mice.
1) Mice grouping, C57BL/6 of SPF grade, 5 weeks old, 18˜22 g, 8 mice for each group. half male and half female;
2) The mother liquid of (S)2-(4′-methyl-3′-nitrobenzoylamino)-3-phenylpropionic acid for dosage form for oral administration was diluted with 1.5% CMC-Na solution to 5 mg/mL, 2.5 mg/mL, 0.5 mg/mL. The dosage for administration in mice was as follows, high dosage group of 50 mg/kg; Medium dosage group of 25 mg/kg; low dosage group of 5 mg/kg. The negative control was 1.5% CMC-Na solution; The positive control was 10 mg/mL of dosage form of 4-methyl-3-nitrobenzoic acid for oral administration, with dosage for administration of 100 mg/kg; […]
5) After the completion of the experiment, the mice were sacrificed and the lungs were made into paraffin tissue sections, then stained by HE and the number of tumors were counted under microscope;

[1] = tested on: human breast cancer cell MDA-MB-231; test: Scratch assay, migration of MDA-MB-231 (Example 3); type: cell-based; details: 0.5, 1, 2, 4 μmol/L, 0-24 h
Experimental: The inhibiting ability of (S)2-(4′-methyl-3′-nitrobenzoylamino)-3-phenylpropionic acid for the migration of human breast cancer cell MDA-MB-231 was tested by scratch assay.
The MDA-MB-231 cells in logarithmic growth phase were plated in the 6-well plate with the density of 1×10^6/3 mL, and the drug was added after 12 h, with 100 μL per well. The final concentrations of (S)2-(4′-methyl-3′-nitrobenzoylamino)-3-phenylpropionic acid (TCI04) were 0.5, 1, 2, and 4 μmol/L, respectively. The negative control was 100 μL sterilized water with 2% DMSO and the positive control was 1 μmol/L 4-methyl-3-nitrobenzoic acid (TCI01). After 12 h, the culture medium was removed, and the plate was washed 3 times with PBS, and 3 ml culture medium without fetal bovine serum and 100 μL drug (concentration was the same as above) per well were added. 12 h later, 10 μL tips were used to scratch, and after washing 4 times with PBS, 3 ml culture medium without fetal bovine serum per well was added. The distance of cell migration was recorded every 3 h under the inverted microscope, and the photos were taken at 0 h and 24 h.

Cc1ccc(C(=O)N[C@@H](Cc2ccccc2)C(=O)O)cc1[N+](=O)[O-] [(S)2-(4′-methyl-3′-nitrobenzoylamino)-3-phenylpropionic acid]
tumor numbers on the lungs and lung weights compared with the negative control (B16 melanoma cells; 8, 2, 0.5 mg/kg tail vein, twice a day, 21 days, P<0.01): very significant difference
inhibition of metastasis of B16 mouse melanoma cell in C57BL/6 mouse (B16 melanoma cells; tail vein administration of 0.5 mg/kg): significantly inhibit
synergistic effect with Paclitaxel (MDA-MB-231 cells): strong synergistic effect
number of the tumors on the lungs compared with the negative control (Lewis lung cancer cells): very significant difference
inhibition of migration ability (coalescence speed of cell scratch vs negative control) [1]: significantly inhibited
